# Source: patent publication US20260092057A1, “BCL-XL/BCL-2 DEGRADERS AND USES THEREOF” (Kymera Therapeutics, Inc., priority 2022, published 2026)
# pIC50: −log10 of the molar value.
# Assays:
# Assay type in all cases: cell-based
# MOLT-4 cells = test: CTG (CellTiter-Glo) cell viability assay, MOLT-4; conditions: Homo sapiens, MOLT-4, 72 h, MOLT-4, 3 day; read-out: CTG Cell Viability Assay - MOLT-4 3 day: Average external-IC50
# In short: (§1)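 Cells seeded at 10,000 per well, then exposed to a 9-point 1:3 dilution series from 10 µM top concentration (0.2% DMSO) for 3 days at 37 °C, 5% CO2. Viability measured by CellTiter-Glo luminescence; IC50 from a three-parameter logistic fit.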
# BCL-XL = biological target: T1, BCL-XL (Homo sapiens, UniProt Q07817); test: BCL-XL degradation assay in MOLT-4 cells (ELISA, 6 h); conditions: for DC50: read-out: Bcl-xL ELISA in MOLT-4 degradation 6 h: External Abs-DC50
# T1 construct: BCL-XL degradation results in MOLT-4 cells for compounds of the invention; endogenous in cells; host or cells: MOLT-4
# T1 sequence (Q07817 whole entry): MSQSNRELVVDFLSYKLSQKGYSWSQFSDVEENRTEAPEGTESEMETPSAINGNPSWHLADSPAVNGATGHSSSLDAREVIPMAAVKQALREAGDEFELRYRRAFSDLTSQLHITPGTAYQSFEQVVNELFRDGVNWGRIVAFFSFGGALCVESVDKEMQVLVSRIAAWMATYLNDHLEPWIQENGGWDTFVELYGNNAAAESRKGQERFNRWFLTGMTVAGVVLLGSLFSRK
# Caki-2 cells = test: CTG (CellTiter-Glo) cell viability assay, Caki-2; conditions: Homo sapiens, CAKI-2, 72 h, Caki-2, 3-day; read-out: CTG Chempartner/PHA- Caki-2 3-day: Average external-IC50
# In short: as §1
pIC50 (MOLT-4 cells),Dmax (BCL-XL) [%],DC50 (BCL-XL) [nM],Compound,pIC50 (Caki-2 cells)
6.00 to 7.00,< 50,500 to 1000,"Cc1ncsc1-c1ccc([C@H](C)NC(=O)[C@@H]2C[C@@H](O)CN2C(=O)[C@@H](NC(=O)CCCCCC(=O)N2CCN(CCCNc3ccc(S(=O)(=O)NC(=O)c4ccc(N5CCC([C@@H](O)c6ccccc6-c6ccc(Cl)cc6)CC5)cc4Oc4cnc5[nH]ccc5c4)cc3S(=O)(=O)C(F)(F)F)CC2)C(C)(C)C)cc1 (single isomer, unassigned) [I-23]",< 4.52
< 5.52,< 50,500 to 1000,"Cc1ncsc1-c1ccc([C@H](C)NC(=O)[C@@H]2C[C@@H](O)CN2C(=O)[C@@H](NC(=O)C2CCN(c3ccc(NC(=O)c4ccc(-c5ccc(Cl)cc5)c([C@H](O)C5CCN(c6ccc(C(=O)NS(=O)(=O)c7ccc(N[C@H](CCN(C)CCO)CSc8ccccc8)c(S(=O)(=O)C(F)(F)F)c7)cc6)CC5)c4)cc3)CC2)C(C)(C)C)cc1 (single isomer, unassigned) [I-27]",< 4.52
6.00 to 7.00,> 75,10 to 100,"C#Cc1ccc([C@H](C)NC(=O)[C@@H]2C[C@@H](O)CN2C(=O)[C@@H](NC(=O)CCCCCC(=O)N2CCN(CC[C@H](CSc3ccccc3)Nc3ccc(S(=O)(=O)NC(=O)c4ccc(N5CCC([C@@H](O)c6ccccc6-c6ccc(Cl)cc6)CC5)cc4)cc3S(=O)(=O)C(F)(F)F)CC2)C(C)(C)C)cc1 (single isomer, unassigned) [I-29]",4.52 to 5.00
5.52 to 6.00,50 to 75,100 to 500,"C#Cc1ccc([C@H](C)NC(=O)[C@@H]2C[C@@H](O)CN2C(=O)[C@@H](NC(=O)CCCCCC(=O)N2CCN(CC[C@H](CSc3ccccc3)Nc3ccc(S(=O)(=O)NC(=O)c4ccc(N5CCC([C@H](O)c6ccccc6-c6ccc(Cl)cc6)CC5)cc4)cc3S(=O)(=O)C(F)(F)F)CC2)C(C)(C)C)cc1 (single isomer, unassigned) [I-33]",< 4.52
6.00 to 7.00,50 to 75,100 to 500,"Cc1ncsc1-c1ccc([C@H](C)NC(=O)[C@@H]2C[C@@H](O)CN2C(=O)[C@@H](NC(=O)CCCCCC(=O)N2CCN(CCCNc3ccc(S(=O)(=O)NC(=O)c4ccc(N5CCC([C@H](O)c6ccccc6-c6ccc(Cl)cc6)CC5)cc4Oc4cnc5[nH]ccc5c4)cc3S(=O)(=O)C(F)(F)F)CC2)C(C)(C)C)cc1 (single isomer, unassigned) [I-38]",< 4.52
5.52 to 6.00,< 50,500 to 1000,"Cc1ncsc1-c1ccc([C@H](C)NC(=O)[C@@H]2C[C@@H](O)CN2C(=O)[C@@H](NC(=O)CCCC(=O)N2CCN(CCCNc3ccc(S(=O)(=O)NC(=O)c4ccc(N5CCC([C@H](O)c6ccccc6-c6ccc(Cl)cc6)CC5)cc4Oc4cnc5[nH]ccc5c4)cc3S(=O)(=O)C(F)(F)F)CC2)C(C)(C)C)cc1 (single isomer, unassigned) [I-60]",< 4.52
6.00 to 7.00,> 75,< 10,"Cc1ncsc1-c1ccc([C@H](C)NC(=O)[C@@H]2C[C@@H](O)CN2C(=O)[C@@H](NC(=O)CCCCCC(=O)N2CCN(c3ccc(-c4ccc(Cl)cc4)c([C@H](O)C4CCN(c5ccc(C(=O)NS(=O)(=O)c6ccc(N[C@H](CCN(C)CCO)CSc7ccccc7)c(S(=O)(=O)C(F)(F)F)c6)cc5)CC4)c3)CC2)C(C)(C)C)cc1 (single isomer, unassigned) [I-113]",< 4.52
< 5.52,50 to 75,500 to 1000,Cc1ncsc1-c1ccc([C@H](C)NC(=O)[C@@H]2CC(O)CN2C(=O)[C@@H](NC(=O)CCCCCCC(=O)N2CCN(c3ccc(-c4ccc(Cl)cc4)c(CN4CCN(c5ccc(C(=O)NS(=O)(=O)c6ccc(N[C@H](CCN(C)C)CSc7ccccc7)c([N+](=O)[O-])c6)cc5)CC4)c3)CC2)C(C)(C)C)cc1 (stereo partly drawn) [I-4],< 4.52
6.00 to 7.00,> 75,10 to 100,Cc1ncsc1-c1ccc([C@H](C)NC(=O)[C@@H]2C[C@@H](O)CN2C(=O)[C@@H](NC(=O)CCCCCCC(=O)N2CCN(Cc3ccc(-c4ccc(Cl)cc4)c(CN4CCN(c5ccc(C(=O)NS(=O)(=O)c6ccc(N[C@H](CCN(C)C)CSc7ccccc7)c([N+](=O)[O-])c6)cc5)CC4)c3)CC2)C(C)(C)C)cc1 [I-5],< 4.52
< 5.52,< 50,500 to 1000,Cc1ncsc1-c1ccc([C@H](C)NC(=O)[C@@H]2C[C@@H](O)CN2C(=O)[C@@H](NC(=O)CCCCCCC(=O)N2CCN(C(=O)c3ccc(-c4ccc(Cl)cc4)c(CN4CCN(c5ccc(C(=O)NS(=O)(=O)c6ccc(N[C@H](CCN(C)C)CSc7ccccc7)c([N+](=O)[O-])c6)cc5)CC4)c3)CC2)C(C)(C)C)cc1 [I-6],< 4.52
< 5.52,< 50,500 to 1000,Cc1ncsc1-c1ccc([C@H](C)NC(=O)[C@@H]2C[C@@H](O)CN2C(=O)[C@@H](NC(=O)CCCCCC(=O)N2CCN(Cc3ccc(-c4ccc(Cl)cc4)c(CN4CCN(c5ccc(C(=O)NS(=O)(=O)c6ccc(N[C@H](CCN(C)C)CSc7ccccc7)c([N+](=O)[O-])c6)cc5)CC4)c3)CC2)C(C)(C)C)cc1 [I-7],< 4.52
6.00 to 7.00,50 to 75,100 to 500,Cc1ncsc1-c1ccc([C@H](C)NC(=O)[C@@H]2C[C@@H](O)CN2C(=O)[C@@H](NC(=O)CCCCCCCC(=O)N2CCN(Cc3ccc(-c4ccc(Cl)cc4)c(CN4CCN(c5ccc(C(=O)NS(=O)(=O)c6ccc(N[C@H](CCN(C)C)CSc7ccccc7)c([N+](=O)[O-])c6)cc5)CC4)c3)CC2)C(C)(C)C)cc1 [I-8],< 4.52
< 5.52,< 50,500 to 1000,Cc1ncsc1-c1ccc([C@H](C)NC(=O)[C@@H]2C[C@@H](O)CN2C(=O)[C@@H](NC(=O)CCCCCCCCN2CCN(Cc3ccc(-c4ccc(Cl)cc4)c(CN4CCN(c5ccc(C(=O)NS(=O)(=O)c6ccc(N[C@H](CCN(C)C)CSc7ccccc7)c([N+](=O)[O-])c6)cc5)CC4)c3)CC2)C(C)(C)C)cc1 [I-9],< 4.52
< 5.52,50 to 75,100 to 500,Cc1ncsc1-c1ccc([C@H](C)NC(=O)[C@@H]2C[C@@H](O)CN2C(=O)[C@@H](NC(=O)CCCCCCCC(=O)Nc2ccc(-c3ccc(Cl)cc3)c(CN3CCN(c4ccc(C(=O)NS(=O)(=O)c5ccc(N[C@H](CCN(C)C)CSc6ccccc6)c([N+](=O)[O-])c5)cc4)CC3)c2)C(C)(C)C)cc1 [I-10],< 4.52
< 5.52,< 50,500 to 1000,Cc1ncsc1-c1ccc([C@H](C)NC(=O)[C@@H]2C[C@@H](O)CN2C(=O)[C@@H](NC(=O)CCCCCCNC(=O)c2ccc(-c3ccc(Cl)cc3)c(CN3CCN(c4ccc(C(=O)NS(=O)(=O)c5ccc(N[C@H](CCN(C)C)CSc6ccccc6)c([N+](=O)[O-])c5)cc4)CC3)c2)C(C)(C)C)cc1 [I-11],< 4.52
< 5.52,50 to 75,500 to 1000,Cc1ncsc1-c1ccc([C@H](C)NC(=O)[C@@H]2C[C@@H](O)CN2C(=O)[C@@H](NC(=O)CCCCCCN2CCN(CC[C@H](CSc3ccccc3)Nc3ccc(S(=O)(=O)NC(=O)c4ccc(N5CCN(Cc6ccccc6-c6ccc(Cl)cc6)CC5)cc4)cc3[N+](=O)[O-])CC2)C(C)(C)C)cc1 [I-13],< 4.52
< 5.52,< 50,500 to 1000,Cc1ncsc1-c1ccc([C@H](C)NC(=O)[C@@H]2C[C@@H](O)CN2C(=O)[C@@H](NC(=O)CCCCCCN(C)CC[C@H](CSc2ccccc2)Nc2ccc(S(=O)(=O)NC(=O)c3ccc(N4CCN(Cc5ccccc5-c5ccc(Cl)cc5)CC4)cc3)cc2[N+](=O)[O-])C(C)(C)C)cc1 [I-14],< 4.52
< 5.52,< 50,500 to 1000,Cc1ncsc1-c1ccc([C@H](C)NC(=O)[C@@H]2C[C@@H](O)CN2C(=O)[C@@H](NC(=O)C2CCN(c3ccc(NC(=O)c4ccc(-c5ccc(Cl)cc5)c(CN5CCN(c6ccc(C(=O)NS(=O)(=O)c7ccc(N[C@H](CCN(C)C)CSc8ccccc8)c([N+](=O)[O-])c7)cc6)CC5)c4)cc3)CC2)C(C)(C)C)cc1 [I-21],< 4.52
6.00 to 7.00,> 75,10 to 100,"Cc1ncsc1-c1ccc([C@H](C)NC(=O)[C@@H]2C[C@@H](O)CN2C(=O)[C@@H](NC(=O)CCCCCC(=O)N2CCN(CCCNc3ccc(S(=O)(=O)NC(=O)c4ccc(N5CCN(CC6=C(c7ccc(Cl)cc7)CC(C)(C)CC6)CC5)cc4Oc4cnc5[nH]ccc5c4)cc3S(=O)(=O)C(F)(F)F)CC2)C(C)(C)C)cc1 [I-22, (2S,4R)-1-((S)-2-(7-(4-(3-((4-(N-(2-((1H-pyrrolo[2,3-b]pyridin-5-yl)oxy)-4-(4-((4′-chloro-5,5-dimethyl-3,4,5,6-tetrahydro-[1,1′-biphenyl]-2-yl)methyl)piperazin-1-yl)benzoyl)sulfamoyl)-2-((trifluoromethyl)sulfonyl)phenyl)amino)propyl)piperazin-1-yl)-7-oxoheptanamido)-3,3-dimethylbutanoyl)-4-hydroxy-N—((S)-1-(4-(4-methylthiazol-5-yl)phenyl)ethyl)pyrrolidine-2-carboxamide]",4.52 to 5.00
> 7.00,–,–,C#Cc1ccc(C(CO)NC(=O)[C@@H]2C[C@@H](O)CN2C(=O)[C@@H](NC(=O)CCCCCCC(=O)N2CCN(C[C@]3(C)CCC(c4ccc(Cl)cc4)=C(CN4CCN(c5ccc(C(=O)NS(=O)(=O)c6ccc(NCCCN7CCOCC7)c(S(=O)(=O)C(F)(F)F)c6)c(Oc6cnc7[nH]ccc7c6)c5)CC4)C3)CC2)C(C)(C)C)cc1 (stereo partly drawn) [I-139],< 4.52
